Key:
NDM-1 BAA2469 E. coli = format: in vivo; conditions: mice, intravenous; rifampicin 10 mg/kg, colistin 20 mg/kg, HT0120663 5 mg/kg; singly
[1] = test system: NDM-1 BAA2470 K. pneumoniae; format: in vivo; conditions: mice, intravenous; rifampicin 10 mg/kg, colistin 20 mg/kg, HT0120663 5 mg/kg; singly
enterobacteria = conditions: on some enterobacteria; cited from earlier work

| Molecule | in vivo activity of drug alone (NDM-1 BAA2469 E. coli) | in vivo activity of drug alone [1] | antibacterial effect (enterobacteria) |
| --- | --- | --- | --- |
| Cc1cn([C@H]2C[C@H](N=[N+]=[N-])[C@@H](CO)O2)c(=O)[nH]c1=O [HT0120663, Zidovudine] | no in vivo activity | no in vivo activity | bactericidal effect |
| Colistin | no in vivo activity | no in vivo activity | – |

From patent US10098904B2, “Zidovudine combination therapies for treating microbial infections” (HELPERBY THERAPEUTICS LIMITED, priority 2014, dated 2018)
